d = 2'-deoxy (DNA); m = 2'-O-methyl
Experiments:
[1] = molecular target: T1, cGAS (Homo sapiens, UniProt Q8N884); experiment: ISD70-driven IP-10 production in MG-63 cells; format: cell-based; design: endogenous in cells; conditions: indicated concentrations up to 500 nM, ~30 min, ISD overnight (FIG. 24)
[2] = molecular target: T1, cGAS; experiment: ISD70-driven IP-10 production in HT-29 cells, ELISA; format: cell-based; design: endogenous in cells; conditions: 187.5 nM ASO overnight, ISD70 24 h

T1 sequence (Q8N884 whole entry): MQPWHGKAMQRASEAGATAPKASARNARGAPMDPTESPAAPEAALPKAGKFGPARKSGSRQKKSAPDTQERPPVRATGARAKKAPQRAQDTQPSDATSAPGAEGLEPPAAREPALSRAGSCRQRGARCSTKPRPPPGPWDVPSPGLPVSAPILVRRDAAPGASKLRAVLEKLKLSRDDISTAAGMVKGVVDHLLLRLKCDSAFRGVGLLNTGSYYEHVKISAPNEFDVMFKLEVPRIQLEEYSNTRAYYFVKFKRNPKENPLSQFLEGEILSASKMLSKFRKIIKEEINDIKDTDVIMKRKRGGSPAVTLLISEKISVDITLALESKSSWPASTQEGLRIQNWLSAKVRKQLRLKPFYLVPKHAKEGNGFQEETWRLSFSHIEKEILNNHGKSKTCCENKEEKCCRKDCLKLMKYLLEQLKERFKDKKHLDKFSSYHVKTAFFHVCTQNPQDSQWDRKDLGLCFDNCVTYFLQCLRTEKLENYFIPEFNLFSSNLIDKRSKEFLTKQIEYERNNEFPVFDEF

Row | Substance | IP-10 after ISD in MG-63, MOE and LNA ASOs (in words) [1] | inhibition of ISD70-dependent IP-10 production (in words) [2]
1 | CGCTTTTCTGTCTGGT (antisense; LNA-modified, pattern not given here) [CTNN2B-311 LNA KL] | did not inhibit IP-10 production | 
2 | mG*mC*mA*mG*mU*C*T*C*C*A*T*G*T*C*C*mC*mA*mG*mG*mC (GCAGUCTCCATGTCCCAGGC; antisense; sugars from the 5' end m5 d10 m5, all phosphorothioate, methylation of C not given here) [[CDKN2B-AS1]2234] |  | robustly inhibited ISD70-dependent IP-10 production

Reference: patent publication US20240384268A1, “Oligonucleotides” (Hudson Institute of Medical Research, priority 2021, published 2024)
